Results as given in patent publication US8470786B2, “Pyrroloquinolinyl-pyrrolidine-2,5-dione compositions and methods for preparing and using same” (ArQule, Inc., priority 2010, dated 2013).

Experiments:
[1] = tested on: HT29; experiment: Cell proliferation analysis (MTS assay); format: cell-based; conditions: Homo sapiens, HT-29, HT29 cells, treated for 72 hours, read-out: Antiproliferative activity (HT29 MTS GI50)
Experimental: Cell survival was determined by the MTS assay. Briefly, cells were plated in a 96-well plate at 2,000-10,000 cells per well, cultured for 24 hours in complete growth medium, and then treated with various drugs and drug combinations for 72 hours. MTS was added and incubated for 4 hour, followed by assessment of cell viability using the microplate reader at 570 nm. Data were normalized to untreated controls and analyzed.

[2] = biological target: c-Met (Homo sapiens, UniProt P08581); experiment: c-Met autophosphorylation inhibition assay (biochemical); conditions: method per J. Biol. Chem. 286(23), 20666-20676
Chain of c-Met (P08581 25-1390): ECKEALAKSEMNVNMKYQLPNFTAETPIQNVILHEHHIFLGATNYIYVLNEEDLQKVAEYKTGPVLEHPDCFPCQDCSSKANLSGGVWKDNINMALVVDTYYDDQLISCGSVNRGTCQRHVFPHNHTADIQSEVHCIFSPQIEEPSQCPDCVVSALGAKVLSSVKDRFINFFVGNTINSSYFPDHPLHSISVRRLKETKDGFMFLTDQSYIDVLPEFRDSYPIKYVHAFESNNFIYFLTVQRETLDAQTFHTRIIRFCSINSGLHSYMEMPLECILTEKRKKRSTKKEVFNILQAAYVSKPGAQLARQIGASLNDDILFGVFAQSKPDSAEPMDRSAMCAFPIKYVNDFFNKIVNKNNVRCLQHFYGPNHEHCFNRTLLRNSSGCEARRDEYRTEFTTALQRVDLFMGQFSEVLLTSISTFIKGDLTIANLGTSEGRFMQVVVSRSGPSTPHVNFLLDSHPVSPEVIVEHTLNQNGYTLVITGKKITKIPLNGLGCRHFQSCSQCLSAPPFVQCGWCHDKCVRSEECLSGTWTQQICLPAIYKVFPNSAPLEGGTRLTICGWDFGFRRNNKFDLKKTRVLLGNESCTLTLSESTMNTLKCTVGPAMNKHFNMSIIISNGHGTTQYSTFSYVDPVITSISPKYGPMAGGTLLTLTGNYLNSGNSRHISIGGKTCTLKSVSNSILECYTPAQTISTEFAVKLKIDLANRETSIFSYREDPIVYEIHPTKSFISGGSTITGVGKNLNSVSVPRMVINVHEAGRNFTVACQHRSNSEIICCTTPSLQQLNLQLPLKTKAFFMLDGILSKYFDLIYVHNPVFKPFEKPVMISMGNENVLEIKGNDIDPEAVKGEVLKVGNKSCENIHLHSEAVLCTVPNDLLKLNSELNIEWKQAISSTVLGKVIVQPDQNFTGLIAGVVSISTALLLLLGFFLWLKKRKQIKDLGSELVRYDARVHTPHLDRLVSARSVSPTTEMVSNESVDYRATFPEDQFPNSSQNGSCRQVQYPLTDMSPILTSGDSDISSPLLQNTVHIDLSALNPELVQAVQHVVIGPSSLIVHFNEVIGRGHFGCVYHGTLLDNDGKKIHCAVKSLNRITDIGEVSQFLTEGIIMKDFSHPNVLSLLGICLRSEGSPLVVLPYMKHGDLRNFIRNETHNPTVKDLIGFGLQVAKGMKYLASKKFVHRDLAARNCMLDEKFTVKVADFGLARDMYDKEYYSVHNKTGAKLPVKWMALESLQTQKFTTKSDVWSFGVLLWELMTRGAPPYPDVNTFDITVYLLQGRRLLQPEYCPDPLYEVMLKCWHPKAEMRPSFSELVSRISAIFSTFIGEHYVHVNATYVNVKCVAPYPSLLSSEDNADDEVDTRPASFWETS
Experimental: c-Met Autophosphorylation Inhibition assay was carried out according to Journal of Biological Chemistry 286(23), 20666-20676 (Jun. 10, 2010).

Row | Structure (SMILES) | melting point [°C] | GI50 [1] [nM] | IC50 [2] [nM]
1 | O=C1NC(=O)[C@@H](c2cn3c4c(cccc24)CCC3)[C@@H]1c1c[nH]c2cc(O)ccc12 (racemic) [Compound 1, (rac)-trans-3-(5,6-dihydro-4H-pyrrolo[3,2,1-ij]quinolin-1-yl)-4-(6-hydroxy-1H-indol-3-yl)pyrrolidine-2,5-dione] | 167 to 170 | – | –
2 | O=C1NC(=O)[C@@H](c2cn3c4c(cccc24)C(O)CC3)[C@@H]1c1c[nH]c2ccccc12 (mixture of isomers) [Compound 3, (rac)-trans-3-(6-hydroxy-5,6-dihydro-4H-pyrrolo[3,2,1-ij]quinolin-1-yl)-4-(1H-indol-3-yl)pyrrolidine-2,5-dione] | 153 to 155 | – | –
3 | O=C1CCn2cc([C@@H]3C(=O)NC(=O)[C@H]3c3c[nH]c4ccccc34)c3cccc1c32 (racemic) [Compound 8, (3R,4R)-3-(1H-indol-3-yl)-4-(6-oxo-5,6-dihydro-4H-pyrrolo[3,2,1-ij]quinolin-1-yl)pyrrolidine-2,5-dione] | – | 680 ± 50 | 1600 ± 250
4 | O=C1NC(=O)[C@@H](c2cn3c4c(cccc24)CCC3=O)[C@@H]1c1c[nH]c2ccccc12 (racemic) [Compound 9, (3R,4R)-3-(1H-indol-3-yl)-4-(4-oxo-5,6-dihydro-4H-pyrrolo[3,2,1-ij]quinolin-1-yl)pyrrolidine-2,5-dione] | – | 3100 ± 240 | 1000
5 | O=C1NC(=O)[C@@H](c2cn3c4c(cccc24)[C@@H](O)CC3)[C@@H]1c1c[nH]c2ccccc12 [Compound 10, (3R,4R)-3-((S)-6-hydroxy-5,6-dihydro-4H-pyrrolo[3,2,1-ij]quinolin-1-yl)-4-(1H-indol-3-yl)pyrrolidine-2,5-dione] | – | 1500 ± 210 | 2000 ± 210
6 | O=C1NC(=O)[C@@H](c2cn3c4c(cccc24)[C@H](O)CC3)[C@@H]1c1c[nH]c2ccccc12 [Compound 11, (3R,4R)-3-((R)-6-hydroxy-5,6-dihydro-4H-pyrrolo[3,2,1-ij]quinolin-1-yl)-4-(1H-indol-3-yl)pyrrolidine-2,5-dione] | – | 3700 ± 420 | 2600 ± 70
7 | O=C1NC(=O)[C@H](c2cn3c4c(cccc24)[C@H](O)CC3)[C@H]1c1c[nH]c2ccccc12 [Compound 12, (3S,4S)-3-((R)-6-hydroxy-5,6-dihydro-4H-pyrrolo[3,2,1-ij]quinolin-1-yl)-4-(1H-indol-3-yl)pyrrolidine-2,5-dione] | – | 31000 ± 7100 | > 30000
8 | O=C1NC(=O)[C@H](c2cn3c4c(cccc24)[C@@H](O)CC3)[C@H]1c1c[nH]c2ccccc12 [Compound 13, (3S,4S)-3-((S)-6-hydroxy-5,6-dihydro-4H-pyrrolo[3,2,1-ij]quinolin-1-yl)-4-(1H-indol-3-yl)pyrrolidine-2,5-dione] | – | 75000 ± 33000 | > 30000
